Patent US12415834B2, “GhR-binding peptide and composition comprising same” (priority 2021, dated 2025)
Starred links: 1 amine or outer side, 2 acyl side, 3 side chain; linkers in the order of their positions; H or OH if unused. Positions of bridges follow the written chain, without caps; N, C: chain ends. Non-standard residues stand in square brackets, D forms with d. Residues, ends and D or L forms follow the SMILES beside them. Groups on a side chain read outwards from the residue. *: point of attachment. X3 = NC(=O)[C@H](CCCCN*)NC(=O)CC[C@H](NC(=O)CC[C@H](NC(=O)CCCCCCCCCCCCCCC(=O)O)C(=O)O)C(=O)O; X17 = NC(=O)[C@H](CCCCN*)NC(=O)CC[C@H](NC(=O)CCCc1ccc(I)cc1)C(=O)O; Trp(1-CH2CO) = O=C([C@H](Cc1cn(CC(=O)[*:3])c2ccccc12)N[*:1])[*:2]; Trp(5-OMe) = COc1ccc2[nH]cc(C[C@H](N)C(=O)O)c2c1; Butanoyl(4-(4-I-phenyl)) = O=C(CCCc1ccc(I)cc1)*; Trp(5-OH) = N[C@@H](Cc1c[nH]c2ccc(O)cc12)C(=O)O; Phe(4-COOH) = N[C@@H](Cc1ccc(C(=O)O)cc1)C(=O)O; Piperazinyl(4-CH2COOH) = O=C(O)CN1CCN(*)CC1; X7 = O=C(O)CN1CCC(N[*:1])(C(=O)[*:2])CC1; C16 diacid = O=C(O)CCCCCCCCCCCCCCC(=O)*; γGlu = O=C(O)[C@H](CCC(=O)[*:2])N[*:1]; X9 = O=C(CCCc1ccc(-c2ccccc2)cc1)*; NMeK = CN[C@@H](CCCCN)C(=O)O; X4 = O=C(CN[*:2])[*:1]; Aib = CC(C)(N)C(=O)O; CO = O=C([*:1])[*:2]

target: T1, Recombinant human GhR-Fc protein (Homo sapiens, UniProt P10912); test: SPR binding assay (Biacore T200, single-cycle kinetics) of peptides against immobilized human GhR-Fc; details: not given
T1 construct: purchased R&D Systems
T1 sequence (P10912 with tags, fused parts or gaps limits assumed): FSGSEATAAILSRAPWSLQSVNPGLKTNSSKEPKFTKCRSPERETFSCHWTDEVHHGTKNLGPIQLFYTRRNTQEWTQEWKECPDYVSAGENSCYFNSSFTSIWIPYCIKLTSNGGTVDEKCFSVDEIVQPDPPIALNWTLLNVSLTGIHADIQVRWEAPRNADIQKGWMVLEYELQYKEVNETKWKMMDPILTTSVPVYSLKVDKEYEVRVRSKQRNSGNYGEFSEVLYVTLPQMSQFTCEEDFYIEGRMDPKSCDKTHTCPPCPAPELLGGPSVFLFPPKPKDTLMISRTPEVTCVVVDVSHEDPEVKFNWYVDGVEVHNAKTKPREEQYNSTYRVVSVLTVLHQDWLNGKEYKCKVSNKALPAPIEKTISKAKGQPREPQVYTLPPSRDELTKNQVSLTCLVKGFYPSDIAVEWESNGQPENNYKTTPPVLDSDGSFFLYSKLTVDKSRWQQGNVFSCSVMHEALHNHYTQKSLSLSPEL
Method in brief: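 Human GhR-Fc amine-coupled to a CM5 chip at pH 4.0; running buffer HBS-EP with 1% DMSO. Peptides measured by single-cycle kinetics on Biacore T200, with solvent correction and baseline subtraction. KD calculated from fitted ka and kd.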

Row | SMILES | Kd
1 | COc1ccc2[nH]cc(C[C@@H]3NC(=O)[C@H](CC(N)=O)NC(=O)[C@H](CO)NC(=O)[C@H](C(C)C)NC(=O)[C@H](C(C)C)NC(=O)[C@H](CCCCNC(=O)CC[C@H](NC(=O)CCCc4ccc(-c5ccccc5)cc4)C(=O)O)N(C)C(=O)[C@H](Cc4ccc(C(=O)O)cc4)NC(=O)CSC[C@@H](C(N)=O)NC(=O)[C@H](C(C)C)NC(=O)C4(CCN(CC(=O)O)CC4)NC(=O)[C@H](Cc4c[nH]c5ccc(O)cc45)NC(=O)[C@H](CCCCN)NC(=O)[C@H](Cc4ccc(C(=O)O)cc4)NC3=O)c2c1 [Compound 37] ({CH2CO}-[Phe(4-COOH)][NMeK]([γGlu-X9])VVSN[Trp(5-OMe)][Phe(4-COOH)]K[Trp(5-OH)][X7]VC-NH2; thioether N-13) | 5.81 nM

same assay, conditions: SPR, hGhR; Table 1 bicyclic peptides; KD calculated from ka and kd; read-out: KD

Row | SMILES | Kd
2 | CC(C)[C@@H]1NC(=O)[C@H](C(C)C)NC(=O)[C@@H]2CCCCNC(=O)Cn3cc(c4ccccc43)C[C@H](NC(=O)[C@H](CC(N)=O)NC(=O)[C@H](CO)NC1=O)C(=O)N[C@@H](Cc1ccc(C(=O)O)cc1)C(=O)N[C@@H](CCCCN)C(=O)N[C@@H](Cc1c[nH]c3ccc(O)cc13)C(=O)NC(C)(C)C(=O)N[C@@H](C(C)C)C(=O)N[C@H](C(=O)NCCCC[C@H](NC(=O)CC[C@H](NC(=O)CCCc1ccc(I)cc1)C(=O)O)C(N)=O)CSCC(=O)N[C@@H](Cc1ccc(C(=O)O)cc1)C(=O)N2C [Compound 13] ({CH2CO}-[Phe(4-COOH)][NMeK]VVSN[Trp(1-CH2CO)][Phe(4-COOH)]K[Trp(5-OH)][Aib]VC-X17; lactam 2-7; thioether N-13) | 1.36 nM
3 | CC(C)[C@@H]1NC(=O)[C@H](C(C)C)NC(=O)[C@@H]2CCCCNC(=O)Cn3cc(c4ccccc43)C[C@H](NC(=O)[C@H](CC(N)=O)NC(=O)[C@H](CO)NC1=O)C(=O)N[C@@H](Cc1ccc(O)cc1)C(=O)N[C@@H](CCCCN)C(=O)N[C@@H](Cc1c[nH]c3ccc(O)cc13)C(=O)NC(C)(C)C(=O)N[C@@H](C(C)C)C(=O)N[C@H](C(=O)NCC(N)=O)CSCC(=O)N[C@@H](Cc1ccc(O)cc1)C(=O)N2C [Compound 1] ({CH2CO}-Y[NMeK]VVSN[Trp(1-CH2CO)]YK[Trp(5-OH)][Aib]VCG-NH2; lactam 2-7; thioether N-13; C-terminus assumed) | 0.7 nM
4 | CC(C)[C@@H]1NC(=O)[C@H](C(C)C)NC(=O)[C@@H]2CCCCNC(=O)CNC(=O)Cn3cc(c4ccccc43)C[C@H](NC(=O)[C@H](CC(N)=O)NC(=O)[C@H](CO)NC1=O)C(=O)N[C@@H](Cc1ccc(O)cc1)C(=O)N[C@@H](CCCCN)C(=O)N[C@@H](Cc1c[nH]c3ccc(O)cc13)C(=O)NC(C)(C)C(=O)N[C@@H](C(C)C)C(=O)N[C@H](C(=O)NCC(N)=O)CSCC(=O)N[C@@H](Cc1ccc(O)cc1)C(=O)N2C [Compound 2] ({CH2CO}-Y[NMeK]VVSN[Trp(1-CH2CO)]YK[Trp(5-OH)][Aib]VCG-NH2; linker 2-7 via X4; thioether N-13; C-terminus assumed) | 1.22 nM

Results, then the molecule that gave them:

Row | Kd | SMILES
5 | 2.29 nM | CC(C)[C@@H]1NC(=O)[C@H](C(C)C)NC(=O)[C@@H]2CCCCNC(=O)Cn3cc(c4ccccc43)C[C@H](NC(=O)[C@H](CC(N)=O)NC(=O)[C@H](CO)NC1=O)C(=O)N[C@@H](Cc1ccc(C(=O)O)cc1)C(=O)N[C@@H](CCCCN)C(=O)N[C@@H](Cc1c[nH]c3ccc(O)cc13)C(=O)NC1(CCN(CC(=O)O)CC1)C(=O)N[C@@H](C(C)C)C(=O)N[C@H](C(=O)NCCCC[C@H](NC(=O)CC[C@H](NC(=O)CC[C@H](NC(=O)CCCCCCCCCCCCCCC(=O)O)C(=O)O)C(=O)O)C(N)=O)CSCC(=O)N[C@@H](Cc1ccc(O)cc1)C(=O)N2C [Compound 23] ({CH2CO}-Y[NMeK]VVSN[Trp(1-CH2CO)][Phe(4-COOH)]K[Trp(5-OH)][X7]VC-X3; lactam 2-7; thioether N-13)
6 | 4.1 nM | CC(C)[C@@H]1NC(=O)[C@H](C(C)C)NC(=O)[C@@H]2CCCCNC(=O)Cn3cc(c4ccccc43)C[C@H](NC(=O)[C@H](CC(N)=O)NC(=O)[C@H](CO)NC1=O)C(=O)N[C@@H](Cc1ccc(O)cc1)C(=O)N[C@@H](CCCCNC(=O)N1CCN(CC(=O)O)CC1)C(=O)N[C@@H](Cc1c[nH]c3ccc(O)cc13)C(=O)NC(C)(C)C(=O)N[C@@H](C(C)C)C(=O)N[C@H](C(=O)NCCCC[C@H](NC(=O)CC[C@H](NC(=O)CC[C@H](NC(=O)CCCCCCCCCCCCCCC(=O)O)C(=O)O)C(=O)O)C(N)=O)CSCC(=O)N[C@@H](Cc1ccc(C(=O)O)cc1)C(=O)N2C [Compound 17] ({CH2CO}-[Phe(4-COOH)][NMeK]VVSN[Trp(1-CH2CO)]YK([CO-Piperazinyl(4-CH2COOH)])[Trp(5-OH)][Aib]VC-X3; lactam 2-7; thioether N-13)
7 | 2.26 nM | CC(C)[C@@H]1NC(=O)[C@H](C(C)C)NC(=O)[C@@H]2CCCCNC(=O)Cn3cc(c4ccccc43)C[C@H](NC(=O)[C@H](CC(N)=O)NC(=O)[C@H](CO)NC1=O)C(=O)N[C@@H](Cc1ccc(O)cc1)C(=O)N[C@@H](CCCCN)C(=O)N[C@@H](Cc1c[nH]c3ccc(O)cc13)C(=O)NC1(CCN(CC(=O)O)CC1)C(=O)N[C@@H](C(C)C)C(=O)N[C@H](C(=O)NCC(=O)N1CCC[C@H]1C(=O)N[C@H](CO)C(=O)N[C@H](CO)C(=O)N[C@H](CO)C(=O)N[C@@H](CCCCNC(=O)CC[C@H](NC(=O)CC[C@H](NC(=O)CCCCCCCCCCCCCCC(=O)O)C(=O)O)C(=O)O)C(N)=O)CSCC(=O)N[C@@H](Cc1ccc(O)cc1)C(=O)N2C [Compound 30] ({CH2CO}-Y[NMeK]VVSN[Trp(1-CH2CO)]YK[Trp(5-OH)][X7]VCGP[dS][dS][dS]K([γGlu-γGlu-C16 diacid])-NH2; lactam 2-7; thioether N-13)

same assay, conditions: SPR, hGhR; Table 2 monocyclic peptides; KD calculated from ka and kd; read-out: KD

Row | Kd | SMILES
8 | 2.63 nM | COc1ccc2[nH]cc(C[C@@H]3NC(=O)[C@H](CC(N)=O)NC(=O)[C@H](CO)NC(=O)[C@H](C(C)C)NC(=O)[C@H](C(C)C)NC(=O)[C@H](CCCCNC(=O)CC[C@H](NC(=O)CCCc4ccc(I)cc4)C(=O)O)N(C)C(=O)[C@H](Cc4ccc(C(=O)O)cc4)NC(=O)CSC[C@@H](C(=O)NCC(=O)N4CCC[C@H]4C(=O)N[C@H](CO)C(=O)N[C@H](CO)C(=O)N[C@H](CO)C(N)=O)NC(=O)[C@H](C(C)C)NC(=O)C(C)(C)NC(=O)[C@H](Cc4c[nH]c5ccc(O)cc45)NC(=O)[C@H](CCCCN)NC(=O)[C@H](Cc4ccc(C(=O)O)cc4)NC3=O)c2c1 [Compound 41] ({CH2CO}-[Phe(4-COOH)][NMeK]([γGlu-Butanoyl(4-(4-I-phenyl))])VVSN[Trp(5-OMe)][Phe(4-COOH)]K[Trp(5-OH)][Aib]VCGP[dS][dS][dS]-NH2; thioether N-13)
9 | 10.8 nM | COc1ccc2[nH]cc(C[C@@H]3NC(=O)[C@H](CC(N)=O)NC(=O)[C@H](CO)NC(=O)[C@H](C(C)C)NC(=O)[C@H](C(C)C)NC(=O)[C@H](CCCCNC(=O)CC[C@H](NC(=O)CCCc4ccc(I)cc4)C(=O)O)N(C)C(=O)[C@H](Cc4ccc(C(=O)O)cc4)NC(=O)CSC[C@@H](C(N)=O)NC(=O)[C@H](C(C)C)NC(=O)C4(CCN(CC(=O)O)CC4)NC(=O)[C@H](Cc4c[nH]c5ccc(O)cc45)NC(=O)[C@H](CCCCN)NC(=O)[C@H](Cc4ccc(C(=O)O)cc4)NC3=O)c2c1 [Compound 36] ({CH2CO}-[Phe(4-COOH)][NMeK]([γGlu-Butanoyl(4-(4-I-phenyl))])VVSN[Trp(5-OMe)][Phe(4-COOH)]K[Trp(5-OH)][X7]VC-NH2; thioether N-13)
